Measurements published in patent US12226395B2, “Composition for preventing or treating neurodegenerative diseases, containing diterpene-based compound” (KOREA RESEARCH INSTITUTE OF BIOSCIENCE AND BIOTECHNOLOGY, priority 2017, dated 2025).
Where two headings read alike, the source gives them in different places.

Key:
Assay type in all cases: cell-based
Nurr1 [1] = biological target: T1, Nurr1 (Homo sapiens, UniProt P43354); test: Nurr1 activity, luciferase reporter analysis in transfected BE(2)C cells
T1 construct: 3 types of plasmid DNA, including DNA containing Nurr1-LBD and DNA with β-galactosidase, were transfected into BE(2)C cells; expressed in transfected cells; host or cells: BE(2)C cells

[2] = system: nitric oxide production in microglia BV-2 cells; test: Inhibition of nitric oxide production in LPS-treated microglia BV-2 cells (Griess reagent); settings: for Inhibition of nitric oxide production (in words): microglia BV-2 cells
Text: The death of cranial nerve cells due to an inflammatory reaction in a microglia cell has been reported as one of the main causes of degenerative brain diseases such as dementia and Parkinson's disease. (Sarkar S et al., Neurotoxicology, 44, 250-262 (2014); Bower J H et al., Neurology, 67, 494-496 (2006)). Accordingly, the inhibition activity on nitric oxide production, a representative inflammatory factor, was investigated for the compounds isolated from Example 2 in a microglia. Specifically, microglia BV-2 cells were put into a 96-well plate at 5×10^4 cells/well, and cultured for 2 days, followed by incubation with LPS ([…]) for 24 hours with the compound isolated in Example 2 above. The culture supernatant was measured for absorbance at 540 nm using the Griess reagent to quantify nitrite to investigate the amount of nitric oxide production. Minocyline was used as a positive control.

Nurr1 [3] = biological target: T1, Nurr1; test: Nurr1 activity, luciferase reporter analysis in transfected BE(2)C cells; settings: for Nurr1 activation (in words): no concentration stated; for Nurr1 activity (luciferase), multiple of 0.1% DMSO control: BE(2)C cells, 20 hours
Text: As in Example 2, Nurr1 activity according to the concentration of the diterpene isolated from the extract of Daphne genkwa was confirmed through luciferase analysis.
Specifically, after synthesizing a vector in which the gene having the nucleotide sequence (5′-CTCGGAGGACAGTACTCCG-3 SEQ ID NO:1) to which the GLA4 gene can bind is repeated 8 times to the reporter gene, luciferase, is synthesized, 3 types of plasmid DNA, including DNA containing Nurr1-LBD and DNA with β-galactosidase, were transfected into BE(2)C cells. After 6 hours, the compounds 1 to 10 separated in Example 2 were treated according to the concentrations in Table 1 below. The cells thus treated were cultured in a 5% carbon dioxide incubator at 37° C. for 20 hours, and then luciferase analysis was performed. As a control, 0.1% DMSO was used, and at this time, the activity was increased by multiple, and Amodiaquine was used as a positive control.

[4] = Mus musculus, BV-2 cells, LPS 24 hours, nitrite by Griess reagent, read-out: IC50, inhibition of nitric oxide production (Table 4)
[5] = BV-2 cells, LPS 24 hours, nitrite by Griess reagent, read-out: IC50, inhibition of nitric oxide production (Table 5)

T1 sequence (P43354 360-595 limits assumed): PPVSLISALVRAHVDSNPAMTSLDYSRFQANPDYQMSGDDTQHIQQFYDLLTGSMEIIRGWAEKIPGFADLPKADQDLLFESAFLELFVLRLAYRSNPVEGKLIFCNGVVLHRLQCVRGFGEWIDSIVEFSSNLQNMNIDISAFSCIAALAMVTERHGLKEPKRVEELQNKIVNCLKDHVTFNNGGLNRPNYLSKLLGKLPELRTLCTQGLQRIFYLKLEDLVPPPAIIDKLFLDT

Compound | Nurr1 activation (in words) (Nurr1 [1]; 0.03 μM) | Nurr1 activity (Table 3), relative to control treatment (Nurr1 [1]; 0.03 μM) | Nurr1 activity (Table 3), relative to control treatment (Nurr1 [1]; 0.1 μM) | Nurr1 activity (Table 3), relative to control treatment (Nurr1 [1]; 0.3 μM) | Nurr1 activity (Table 3), relative to control treatment (Nurr1 [1]; 1 μM) | IC50 ([2]; Mus musculus, BV-2, 24 h, read-out: IC50, inhibition of nitric oxide production (Table 5)) [µM] | Nurr1 activation (in words) (Nurr1 [3]) | Nurr1 activation (in words) (Nurr1 [1]; 0.01 μM) | IC50 [2, 4] [µM] | Inhibition of nitric oxide production (in words) [2] | Nurr1 activity (luciferase), multiple of 0.1% DMSO control (Nurr1 [3]; High concentration = 1 μM (Table 1)) | Nurr1 activity (luciferase), multiple of 0.1% DMSO control (Nurr1 [3]; Low concentration = 0.01 μM (Table 1)) | Nurr1 activity (luciferase), multiple of 0.1% DMSO control (Nurr1 [3]; Mid concentration = 0.1 μM (Table 1)) | Nurr1 activation (in words) (Nurr1 [1]; 0.003 μM) | Nurr1 activity (Table 3), relative to control treatment (Nurr1 [1]; 0.003 μM) | Nurr1 activity (Table 3), relative to control treatment (Nurr1 [1]; 0.01 μM) | IC50 [2, 5] [µM] | Nurr1 activity (luciferase), multiple of 0.1% DMSO control (Nurr1 [3]; High concentration = 10 μM (Table 1)) | Nurr1 activity (luciferase), multiple of 0.1% DMSO control (Nurr1 [3]; Low concentration = 0.1 μM (Table 1)) | Nurr1 activity (luciferase), multiple of 0.1% DMSO control (Nurr1 [3]; Mid concentration = 1 μM (Table 1))
CCC/C=C/C=C/C=C/C(=O)O[C@@H]1[C@@H](C)[C@@]2(O)C(C=C(CO)C[C@]3(O)C(=O)C(C)=CC23)C2C(C)(C)[C@@]21OC(C)=O (stereo partly drawn) [compound 16, (4aR,7bS,8R,9R,9aS)-9a-acetoxy-4a,7b-dihydroxy-3-(hydroxymethyl)-1,1,6,8-tetramethyl-5-oxo-1a,1b,4,4a,5,7a,7b,8,9,9a-decahydro-1H-cyclopropa[3,4]benzo[1,2-e]azulen-9-yl (2E,4E,6E)-deca-2,4,6-trienoate] | significantly activates Nurr1 | *1.42 ± 0.15 | *1.68 ± 0.43 | *1.82 ± 0.51 | **1.53 ± 0.07 | 1.78 | better effect of increasing Nurr1 activity |  |  |  |  |  |  |  |  |  |  |  |  | 
C=C(C)[C@@]12O[C@@]3(c4ccccc4)O[C@@H]1C1[C@@H]4O[C@]4(CO)[C@@H](O)[C@]4(O)C(=O)C(C)=CC4[C@@]1(O3)[C@H](C)[C@H]2OC(=O)c1ccccc1 (stereo partly drawn) [Formula 2, (2S,3aR,3cS,4aR,5S,5aS,8bR,9R,10R,10aS)-5,5a-dihydroxy-4a-(hydroxymethyl)-7,9-dimethyl-6-oxo-2-phenyl-10a-(prop-1-en-2-yl)-3a,3b,3c,4a,5,5a,8a,9,10,10a-decahydro-6H-2,8b-epoxyoxireno[2″,3″:6′,7′]azuleno[5′,4′:3,4]benzo[1,2-d][1,3]dioxol-10-yl benzoate] |  |  |  |  |  |  | better effect of increasing Nurr1 activity | excellent effect of Nurr1 activity | 0.06 ± 0.02 | superior inhibition activity on nitric oxide production | 1.9 | 2.1 | 2.2 |  |  |  |  |  |  | 
C=C(C)[C@@]12O[C@@]3(/C=C/C=C/CCCCC)O[C@@H]1[C@@H]1[C@@H]4O[C@]4(CO)[C@@H](O)[C@]4(O)C(=O)C(C)=C[C@H]4[C@@]1(O3)[C@H](C)[C@H]2OC(C)=O [compound 13, yuanhuadine] | significantly activates Nurr1 | *1.47 ± 0.17 | *1.42 ± 0.14 | *1.65 ± 0.2 | **1.47 ± 0.02 |  | better effect of increasing Nurr1 activity |  |  |  |  |  |  | activated Nurr1 | 1.23 ± 0.09 | 1.35 ± 0.28 | 1.8 |  |  | 
yuanhuatine [compound 14] | significantly activates Nurr1 | *1.63 ± 0.18 | **1.68 ± 0.11 | **1.62 ± 0.11 | *1.67 ± 0.32 |  | better effect of increasing Nurr1 activity |  |  | better inhibition activity on nitric oxide production |  |  |  | activated Nurr1 | 1.03 ± 0.15 | 0.94 ± 0.04 | 1.03 |  |  | 
C=C(C)[C@]12C[C@@H](C)[C@@]34O[C@](c5ccccc5)(O[C@@H]1C3[C@H](O)[C@@](O)(CO)[C@@H](O)[C@@]1(O)C4C=C(C)[C@@H]1O)O2 (stereo partly drawn) [Formula 7, (2S,3aR,4S,5S,6S,6aR,7S,9bR,10R,11aR)-5-(hydroxymethyl)-8,10-dimethyl-2-phenyl-11a-(prop-1-en-2-yl)-3a,3b,4,5,6,7,9a,10,11,11a-decahydro-6aH-2,9b-epoxyazuleno[5′,4′:3,4]benzo[1,2-d][1,3]dioxole-4,5,6,6a,7-pentaol] |  |  |  |  |  |  |  |  | 3.41 ± 0.99 |  |  |  |  |  |  |  |  | 2.0 | 1.2 | 2.6
